What was measured:
[1] = system: poly(dAdT)2 (DNA, polymer) AT; test: UV thermal melting at 260 nm; conditions: Na+ (sodium cacodylate, I = 0.05 M), pH 7.0, r = [compound]/[polynucleotide phosphate] = 0.3, error ±0.5, per base
[2] = system: poly dA-poly dT (DNA, polymer) A/T; test: UV thermal melting at 260 nm; conditions: Na+ (sodium cacodylate, I = 0.05 M), pH 7.0, r = [compound]/[polynucleotide phosphate] = 0.3, error ±0.5, per base
E. coli ATCC 25922 = test: Broth microdilution testing (CLSI); format: cell-based, Escherichia coli; conditions: Escherichia coli, ATCC25922; broth microdilution, 16–24h at 37 °C; read-out: MIC E. coli ATCC 25922
Description: (§1) Broth microdilution testing was performed according to CLSI (Clinical Laboratory Standards Institute) guidelines. MIC (minimal inhibitory concentration) value was defined as the last tested concentration of compound at which there is no visible growth of bacteria. […] Clinical and Laboratory Standards Institute (CLSI) guidelines.

A549 [3] = test: BrdU proliferation assay, 2D cell culture; format: cell-based, human; conditions: Homo sapiens, A549, 2D, BrdU, n = 2, read-out: Proliferation Assay IC50 ± SD
Description: (§2) MTS assay gives us information about the number of living cells, in this case, metabolically active cells, whereas the BrdU proliferation assay gives a measure of the cell population in active division phase. Both assays were performed in 2D and 3D assay formats. For the 2D cell assay format, we used classic two-dimensional in vitro assays and as a 3D assay we used a hanging drop proliferation cell assay as previously described. We explored the activity of compounds on three human lung cancer cell lines, A549, HCC827 and NCI-H358. The compound activity was also tested on human lung fibroblast cell line MRC-5. A two-dimensional in vitro viability assay was performed on the MRC-5 cell line to see if tested compounds are cytotoxic on normal cell lines in low concentrations. […] 7.1.
(§3) Test compounds were synthesized by a research group at the Department of Organic Chemistry, Faculty of Chemical Engineering and Technology, University of Zagreb. […] Compounds were diluted 1:3. We transferred 500 nL (for 2D cell culture) or 400 nL (for 3D cell culture) of the compound from a mother plate to test plate by using Mosquito (TTP labtech). DMSO percentage in test concentrations was 0.5–1.0%. Starting concentration of the test compounds and standard compound doxorubicin was 50 µM (2D cell culture) or 100 µM (3D cell culture).
(§4) Cells were grown in 96-well cell star polystyrene plates. We seeded 10,000 cells/well in wells 4 h prior to the treatment with different compounds concentrations and incubated for 72 h. A cell viability assay was performed according to the manufacturer’s instructions, using CellTiter 96 aqueous solution, MTS kit (Promega, Madison, WI, USA). After 0.5–2 h of cell incubation with MTS in 2D cell culture, the plates were read using PE EnVision absorbance at 490 nm.
(§5) Proliferation assay was performed using Cell Proliferation ELISA, BrdU (Sigma, St. Louis, MO, USA). Briefly, 48 h hours after compound addition, 10 µM of BrdU was added to each well and incubated for the following 24 h. After incubation, a single cell suspension was made for 3D cell culture in the new 96-well plate. Plates were centrifuged and supernatants were removed from each plate (for 2D and 3D cell culture) followed by 60 min incubation at 60 °C. The rest of the proliferation assay was performed according to the manufacturer’s instructions.
(§6) Calculation of IC50 data, curves and QC analysis was performed by using Excel tools and GraphPadPrism software (La Jolla, CA, USA), v. […] QC criteria parameters (Z’, S:B, R2, HillSlope) were checked for every IC50 curve.

HCC827 [4] = test: BrdU proliferation assay, 2D cell culture; format: cell-based, human; conditions: Homo sapiens, HCC827, 2D, BrdU, n = 2, read-out: Proliferation Assay IC50 ± SD
Description: as §2, §3, §4, §5, §6

NCI-H358 [5] = test: BrdU proliferation assay, 2D cell culture; format: cell-based, human; conditions: Homo sapiens, NCI-H358, 2D, n = 2, read-out: Proliferation Assay IC50 ± SD
Description: as §2, §3, §4, §5, §6

A549 [6] = test: BrdU proliferation assay, 3D hanging drop cell culture; format: cell-based, human; conditions: Homo sapiens, A549, 3D, BrdU, n = 2, read-out: Proliferation Assay IC50 ± SD
Description: as §2, §3
(§7) Cells were grown in 96-well Perfecta 3D hanging drop plates 5000 cell/well for 4 days until spheres were formed (and checked under the microscope). After sphere formation cells were treated with compounds followed by 72 h incubation. Cell viability assay was performed according to the manufacturer’s instructions, using CellTiter GLO 3D for 3D cell culture (Promega); cell incubation was 5 min on the shaker followed by 25 min incubation in the dark. Plates were read using PE EnVision luminescence.
as §5, §6

HCC827 [7] = test: as above; format: cell-based, human; conditions: Homo sapiens, HCC827, 3D, BrdU, n = 2, read-out: Proliferation Assay IC50 ± SD
Description: as §2, §3, §7, §5, §6

NCI-H358 [8] = test: as above; format: cell-based, human; conditions: Homo sapiens, NCI-H358, 3D, n = 2, read-out: Proliferation Assay IC50 ± SD
Description: as §2, §3, §7, §5, §6

S. cerevisiae ATCC 7752 = test: Broth microdilution testing (CLSI); format: cell-based, Saccharomyces cerevisiae; conditions: Saccharomyces cerevisiae, ATCC7752; broth microdilution, 16–24h at 37 °C; read-out: MIC S. cerevisiae ATCC 7752
Description: as §1

[9] = MTS cytotoxicity assay, 2D cell culture, normal lung fibroblasts; conditions: human, MRC-5 normal lung fibroblasts, 2D culture
Description: as §2, §3, §4, §6

A549 [10] = test: Cytotoxicity (viability) assay, 3D hanging drop cell culture; conditions: Homo sapiens, A549, 72 h, read-out: Cytotoxicity Assay IC50 ± SD; A549 3D
Description: as §2, §3, §7, §6

HCC827 [11] = test: as above; conditions: Homo sapiens, HCC827, 72 h, read-out: Cytotoxicity Assay IC50 ± SD; HCC827 3D
Description: as §2, §3, §7, §6

NCI-H358 [12] = test: as above; conditions: Homo sapiens, NCI-H358, 72 h, read-out: Cytotoxicity Assay IC50 ± SD; NCI-H358 3D
Description: as §2, §3, §7, §6

A549 [13] = test: MTS cytotoxicity assay, 2D cell culture; conditions: Homo sapiens, A549, 72 h, read-out: Cytotoxicity Assay IC50 ± SD; A549 2D, 72 h, MTS; n = 2
Description: as §2, §3, §4, §6

HCC827 [14] = test: MTS cytotoxicity assay, 2D cell culture; conditions: Homo sapiens, HCC827, 72 h, read-out: Cytotoxicity Assay IC50 ± SD; HCC827 2D
Description: as §2, §3, §4, §6

NCI-H358 [15] = test: MTS cytotoxicity assay, 2D cell culture; conditions: Homo sapiens, NCI-H358, 72 h, read-out: Cytotoxicity Assay IC50 ± SD; NCI-H358 2D
Description: as §2, §3, §4, §6

S. aureus ATCC 29213 = test: Broth microdilution testing (CLSI); format: cell-based, Staphylococcus aureus; conditions: Staphylococcus aureus, ATCC29213, broth microdilution, 16–24h at 37 °C; read-out: MIC S. aureus ATCC 29213
Description: as §1

ctDNA = test: Thermal melting experiments; format: binding, calf; conditions: r = [compound]/[polynucleotide] = 0.3, pH 7.0, sodium cacodylate buffer I = 0.05 mol dm^−3; error ±0.5 °C
Excerpt: (§8) The thermal stability of helices is usually affected by the non-covalent binding of small molecules to double-stranded nucleic acids. We determined the ΔTm value (the difference between the Tm value of free polynucleotide and a complex with a small molecule) for complexes of selected compounds with ctDNA and an alternating polynucleotide, poly(dAdT)2. […] Because of this, we determined ΔTm value with non-alternating AT-DNA, poly dA-poly dT as well.

poly(dAdT)2 = test: Thermal melting experiments; format: binding; conditions: r = 0.3, pH 7.0, sodium cacodylate buffer I = 0.05 mol dm^−3; error ±0.5 °C
Excerpt: as §8

poly dA-poly dT = test: Thermal melting experiments; format: binding; conditions: r = 0.3, pH 7.0, sodium cacodylate buffer I = 0.05 mol dm^−3; error ±0.5 °C
Excerpt: as §8

[16] = Solubility in water (stock solutions)
[17] = system: poly(dAdT)2 (DNA, polymer) AT; test: CD titration; conditions: Na+ (sodium cacodylate, I = 0.05 M), pH 7.0, 25 °C, polynucleotide 3.0 × 10^-5 M

SMILES	MIC (E. coli ATCC 25922) [µM]	IC50 (A549 [3]) [µM]	IC50 (HCC827 [4]) [µM]	IC50 (NCI-H358 [5]) [µM]	IC50 (A549 [6]) [µM]	IC50 (HCC827 [7]) [µM]	IC50 (NCI-H358 [8]) [µM]	MIC (S. cerevisiae ATCC 7752) [µM]	melting point [°C]	MIC (S. aureus ATCC 29213) [µM]	ΔTm [1] [°C]	ΔTm [2] [°C]	IC50 at 72 h [9] [µM]	IC50 (A549 [10]) [µM]	IC50 (HCC827 [11]) [µM]	IC50 (NCI-H358 [12]) [µM]	IC50 (A549 [13]) [µM]	IC50 (HCC827 [14]) [µM]	IC50 (NCI-H358 [15]) [µM]	other results
CC(C)NC(=N)c1ccc2nc(-c3ccc(-c4ccc([N+](=O)[O-])cc4)o3)sc2c1	–	–	–	–	–	–	–	–	–	–	4.8	5.5	–	–	–	–	–	–	–	–
Cl.O=[N+]([O-])c1ccc(-c2ccc(-c3nc4ccc(C5=NCCN5)cc4s3)o2)cc1 [Compound 6, 6-(4,5-Dihydro-1H-imidazol-2-yl)-2-[5-(4-nitrophenyl)furan-2-yl]benzothiazole hydrochloride]	> 100	2.27 ± 0.13	16.7 ± 9.39	1.1 ± 0.001	5.52 ± 0.1	7.63 ± 5	2.36 ± 1.17	1.6	287 to 292	> 100	3.6	5.6	3.11 ± 0.26	4.01 ± 0.95	7.02 ± 3.25	1.73 ± 0.01	2.12 ± 0.21	5.13 ± 0.97	0.85 ± 0.05	ΔTm ctDNA (ctDNA): 3.2 °C; ΔTm poly (dAdT)2 (poly(dAdT)2): 3.6 °C; ΔTm Poly dA-poly dT (poly dA-poly dT): 5.6 °C; solubility [16]: 1720 µM
CC(C)NC(=N)c1ccc2nc(-c3ccc(-c4ccc(Cl)cc4)o3)sc2c1	–	–	–	–	–	–	–	–	–	–	3.6	4.3	–	–	–	–	–	–	–	binding [17]: yes
N#Cc1ccc2nc(-c3ccc(-c4ccc([N+](=O)[O-])cc4)o3)sc2c1 [Compound 4, 6-Cyano-2-[5-(4-nitrophenyl)furan-2-yl]benzothiazole]	> 100	> 50	> 50	> 50	> 100	> 100	> 100	> 100	276 to 279	> 100	–	–	> 50	> 100	> 100	> 100	> 50	> 50	> 50	–
N#C/C(=C\c1ccc(-c2ccc(Cl)cc2)o1)c1nc2ccccc2[nH]1 [Compound 20, (E)-2-(Benzimidazol-2-yl)-3-[5-(4-chlorophenyl)furan-2-yl]acrylonitrile]	> 100	43.9 ± 54.3	> 50	14.4 ± 6.46	> 100	0.16 ± 0.11	> 100	> 100	292 to 294	> 100	–	–	> 50	> 100	9.48 ± 1.15	> 100	> 50	43.5 ± 8.17	31.1 ± 4.42	–
N#C/C(=C\c1ccc(-c2ccc([N+](=O)[O-])cc2)o1)c1nc2ccccc2[nH]1 [Compound 17, (E)-2-(Benzimidazol-2-yl)-3-[5-(4-nitrophenyl)furan-2-yl]acrylonitrile]	> 100	> 50	> 50	> 50	> 100	> 100	> 100	> 100	273 to 274	> 100	–	–	> 50	> 100	> 100	> 100	> 50	> 50	> 50	–

Second part, led by results:

MIC (E. coli ATCC 25922) [µM]	IC50 (A549 [3]) [µM]	IC50 (HCC827 [4]) [µM]	IC50 (NCI-H358 [5]) [µM]	IC50 (A549 [6]) [µM]	IC50 (HCC827 [7]) [µM]	IC50 (NCI-H358 [8]) [µM]	MIC (S. cerevisiae ATCC 7752) [µM]	melting point [°C]	MIC (S. aureus ATCC 29213) [µM]	SMILES	ΔTm [1] [°C]	ΔTm [2] [°C]	IC50 at 72 h [9] [µM]	IC50 (A549 [10]) [µM]	IC50 (HCC827 [11]) [µM]	IC50 (NCI-H358 [12]) [µM]	IC50 (A549 [13]) [µM]	IC50 (HCC827 [14]) [µM]	IC50 (NCI-H358 [15]) [µM]	other results
> 100	> 50	> 50	> 50	> 100	> 100	> 100	> 100	235 to 237	> 100	N#Cc1ccc2nc(-c3ccc(-c4ccc(Cl)cc4)o3)sc2c1 [Compound 7, 2-[5-(4-Chlorophenyl)furan-2-yl]-6-cyanobenzothiazole]	–	–	> 50	> 100	> 100	> 100	> 50	> 50	> 50	–
> 100	> 50	> 50	> 50	> 100	> 100	> 100	> 100	242 to 246	> 100	N#Cc1ccc2[nH]c(-c3ccc(-c4ccc([N+](=O)[O-])cc4)o3)nc2c1 [Compound 10, 5(6)-Cyano-2-[5-(4-nitrophenyl)furan-2-yl]benzimidazole]	–	–	> 50	> 100	> 100	> 100	> 50	> 50	> 50	–
> 100	22.7 ± 0.54	> 50	15.7 ± 0.86	> 100	> 100	> 100	> 100	242 to 246	> 100	N#Cc1ccc2[nH]c(-c3ccc(-c4ccc(Cl)cc4)o3)nc2c1 [Compound 13, 2-[5-(4-Chlorophenyl)furan-2-yl]-5(6)-cyanobenzimidazole]	–	–	> 50	> 100	> 100	> 100	> 50	> 50	> 50	–

Reference: publication PMC8401404 (Molecules, 2021)
